Laboratory results reported in the METLIN SMRT retention time set (Domingo-Almenara et al. 2019).

Assay: gradient 5% acetonitrile 3 min, to 50% in 2 min, to 85% in 15 min, held 3 min, 100 µL/min
Details: column: Zorbax Extend-C18 2.1 x 50 mm; eluents: water / acetonitrile, 0.1% formic acid
Procedure, shortened: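 Retention times of pure standards were taken from adduct peaks that were selected by computer and manually inspected. Over 3 months, mixtures of ~100 molecules were run by HPLC–quadrupole time-of-flight mass spectrometry in positive and negative ionization mode. The Zorbax Extend-C18 column (2.1 × 50 mm, 1.8 μm) ran at 100 μL/min in water and acetonitrile, each containing 0.1% formic acid, with 40 μL dead volume and 900 μL dwell volume.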

RP-LC retention time [s] | SMILES
697 | O=C(NCc1cccc(Cl)c1)C1CCN(c2cnc3nccnc3c2)CC1
703 | Cc1cc(C)cc(Nc2c(C(=O)N3CCCCC3C)cnc3nc(C)ccc23)c1 (configuration not stated)
841 | O=C(Cc1ccccc1Cl)N1CCC2(CC1)N=C(c1ccccc1)NO2
648 | Cc1cc(N2C(=O)CCS2(=O)=O)cc(C)c1S(=O)(=O)N1CCC(C(N)=O)CC1
576 | CN(C)CC1(O)CCC2(CCN(C(=O)c3ccsc3)CC2)CC1
841 | O=C(CCCS(=O)(=O)Cc1ccccc1)Nc1nc2c(s1)Cc1ccccc1-2
1160 | COC(=O)c1cc(C2CC2)nc2c1c(=O)n(Cc1ccc(C)cc1)c(=O)n2C
801 | COc1ccccc1/C=C(\C#N)C(=O)O
956 | CC(C)c1noc(-c2cc(=O)n(CC(=O)Nc3ccc4c(c3)OCO4)c3ccccc23)n1
943 | O=C(NCc1ccco1)C1c2ccccc2C(=O)N(Cc2ccccc2)C12CCCC2 (configuration not stated)
908 | COc1cccc(NC(=O)Cn2nc(N3CCSCC3)c3ccccc3c2=O)c1
1080 | O=C(NCCC1=CCCCC1)C1CCN(c2ncccc2S(=O)(=O)N2CCCCC2)CC1
809 | CCc1cccc(C)c1NC(=O)Cn1nc(N2CCOCC2)c2ccccc2c1=O
595 | CC(C(=O)NCCCN1CCC(N2CCCCC2)CC1)n1c(=O)c(C(F)(F)F)nc2ccccc21 (configuration not stated)
637 | CCN1C(=O)c2cccnc2Sc2cc(NC(=O)c3cccnc3)ccc21
899 | CCCNC(=O)N(C1CCOCC1)C1CCN(S(=O)(=O)c2ccccc2CC)CC1
618 | Cc1nnc(-c2ccc3ccn(CC(=O)Nc4ncccc4C)c3c2)o1
979 | CO[C@@H]1[C@@H](OC(N)=O)[C@H](O)[C@H](Oc2ccc3c(O)c(NC(=O)c4ccc(O)c(CC=C(C)C)c4)c(=O)oc3c2C)OC1(C)C
621 | COc1ccc(S(=O)(=O)N2CC3CN(C(=O)c4ccncc4)CC(C2)O3)cc1
725 | CCC(=O)N1CCCc2cc(NC(=O)c3ccco3)ccc21
554 | O=C(Nc1ccccc1F)N1CCC2(CCC2N2CCOCC2)CC1 (configuration not stated)
632 | CO[C@H]1C(=O)N(C2CCN(S(=O)(=O)Cc3ccccc3)CC2)[C@H]1c1ccncc1

RP-LC retention time [s] | SMILES
814 | COc1cc(-c2ccc(Cl)cc2)nc2ccc(NC(=O)c3cccs3)cc12
649 | Cc1nnc2c(=O)n(CC(=O)NCc3ccccc3F)c3cccnc3n12
551 | CCN1CCN(CCNC(=O)C2CCCN(S(=O)(=O)N(C)c3ccc(F)cc3)C2)CC1 (configuration not stated)
586 | CSc1ccccc1CN1CCC(CNC(=O)C(=O)Nc2ccc3c(c2)OCO3)CC1
748 | Cc1cccc(CNC(=O)C2c3ccccc3CC(=O)N2C)c1 (configuration not stated)
1030 | CC1(C(=O)NCc2ccccc2)CCCN(C(=O)Nc2ccc(Br)cc2F)C1 (configuration not stated)
857 | Cc1noc(-c2cccc(OC3CN(C(=O)Cc4ccsc4)C3)c2)n1
750 | CCc1cccc(C)c1Nc1c(-c2cccc(O)c2)nc2cnccn12
985 | Cn1nnc2ccc(-c3noc(-c4ccccc4)n3)cc21
947 | O=C(Cn1nc2c3cc(-c4ccccc4)nn3ccn2c1=O)Nc1ccc(Br)cc1
877 | COc1ccc(NC(=O)c2c(OC)cc(=O)n3c2CCCC3)c(OC)c1
689 | CN1CC[C@H](c2c(O)cc(O)c3c(=O)cc(-c4ccccc4Cl)oc23)[C@H](O)C1
946 | O=c1c(S(=O)(=O)N2CCCCCC2)cccn1Cc1cccc(F)c1
710 | O=C(c1ccc(CN2C(=O)CSc3ncccc32)cc1)N1CCN(c2ccccn2)CC1
639 | COc1ccc(-c2n[nH]c3c2C(c2ccc(O)c(OC)c2)NC3=O)cc1 (configuration not stated)
672 | O=C(c1nc2nc(-c3cccs3)cc(C(F)(F)F)n2n1)N1CCN(c2ccccn2)CC1
679 | NC(=O)c1cc(-c2cccc(Cl)c2)n[nH]1
578 | CN1CCN(c2cc(C(=O)O)c3cc(NC(=O)C(C)(C)C)ccc3n2)CC1
670 | COCc1noc(C2CN(CCc3ccccc3)CC23CCCC3)n1 (configuration not stated)
879 | O=S(=O)(Nc1ccc(F)cc1F)c1ccc(-c2nnc(C3CCC3)o2)o1
1390 | O=C(Nc1ccsc1-c1nnc(C2CC2)o1)c1cccc(Br)c1
614 | O=C(c1cnn2c1CCCC2)N1CCCC1

RP-LC retention time [s] | SMILES
874 | Cc1noc(C)c1-c1ccc(S(=O)(=O)Nc2ccc(C#N)cc2)cc1
834 | CC(C)CNC(=O)CCc1nc2ccccc2n(CC(=O)NCCCc2ccccc2)c1=O
723 | CC1=C(C(=O)N2CCOCC2)C(c2ccc(Br)cc2)C2=C(CC(C)(C)CC2=O)N1 (configuration not stated)
633 | CCN1CCN(c2nccc(-c3cnc4nc(-c5ccccc5)nn4c3C)n2)CC1
795 | CCc1cccc(NC(=O)N(C)CC2CCOCC2)c1
926 | Cc1oc(C2CCN(S(=O)(=O)c3cc(F)ccc3F)CC2)nc1C(=O)N1CCCC1
960 | O=C(NC1CCCC1)c1nnc(-c2ccc(S(=O)(=O)N3CCCCC3)cc2)o1
1080 | CCc1ccc(N2CC(c3noc(-c4ccc(OC)cc4)n3)CC2=O)cc1 (configuration not stated)
661 | CCC(CN1CCOCC1)NC(=O)c1c2c(cn(-c3ccccc3)c1=O)C(=O)CC(C)(C)C2 (configuration not stated)
597 | Cc1ccsc1C(=O)NCc1ccc2c(c1)ncn2C
772 | O=C(Nc1ccccc1)C1CCCN(C(=O)C2Sc3ccccc3NC2=O)C1 (configuration not stated)
944 | COc1ccc(N2CC(c3noc(-c4cccc(Cl)c4)n3)CC2=O)cc1OC (configuration not stated)
721 | COc1ccc(OC)c(CNC(=O)C2CCN(S(=O)(=O)c3ccc4c(c3)NC(=O)CO4)CC2)c1
666 | CC(C)=CCOc1cc(O)c2c(=O)cc(-c3ccccc3)oc2c1
554 | CCc1cc(=O)n(Cc2ncc(C)c(OC)c2C)c(N2CCCC2)n1
570 | Cc1noc(C)c1S(=O)(=O)N1CCc2nc[nH]c2C1
868 | CN1C(=O)C(c2c[nH]c3ccccc23)=C(c2c[nH]c3ccccc23)C1=O
602 | Cc1ccc(CNC(=O)Cn2ccnc2-c2ccnc(N3CCCC3)c2)cc1
1060 | Cc1ccc(-c2cc3c4nnc(SCC(=O)Nc5cccc(Cl)c5C)n4ccn3n2)cc1C
985 | O=C(Nc1ccc(F)c(F)c1)c1cnc(-c2ccc(F)cc2)nc1-c1ccncc1
925 | CC(C)(C)NC(=O)N(Cc1ccsc1)CC(F)(F)F

SMILES | RP-LC retention time [s]
CCCN1CC[C@@H]2c3cc(O)ccc3CC[C@@H]21 | 593
CC(C)(C)NCC(O)c1cc(Cl)c(N)c(C(F)(F)F)c1 (configuration not stated) | 708
